Source: patent US10166271B2, “Methods for promoting hair growth” (THE REGENTS OF THE UNIVERSITY OF CALIFORNIA, priority 2006, dated 2019)

Key:
young CRF-OE mice [1] = conditions: mouse, in vivo
Experimental: Each subcutaneous injection is given in a single puncture located along or about the midline of the back. Age-matched CRF-OE mice similarly injected with 0.1 ml vehicle alone are used as negative controls. Astressin B fragments are as described in Example 8. Alternatively, topical astressin B can be applied to the mouse's back, for example 0.05 mg, 0.5 mg, 5 mg, 50 mg, or 500 mg of an astressin B fragment once daily for at least five consecutive days
Hair growth (or hair loss) is assessed using the hair growth scale described in Example 1. The general conditions of treated and control mice, such as weight, back skin thickness, hair luster, skin wounds and indurations, are noted.

young CRF-OE mice [2] = test: Cyclic CRF antagonists, prevention of hair loss in young CRF-OE mice (Example 11); type: in vivo; conditions: at least four weeks after the final administration
Description: (§1) Although mice are particularly described, one skilled in the art will appreciate that other laboratory animals and human subjects can be used, and doses adjusted accordingly (for example based on the weight of the subject, or the area to which the peptide is to be applied). Similarly, although particular modes of administration are described, one will appreciate that variations can be made (such as those disclosed herein and those known in the art).
(§2) Any method of administration can be used, including injection, transdermal/topical delivery, or combinations thereof.
(§3) In one example, therapeutic peptides are administered via injection. For example, mice can be injected subcutaneously or intraperitoneally with at least 0.05 μg, at least 0.5 μg, at least 5 μg, at least 50 μg, or at least 500 μg of one or more therapeutic peptides (for example 0.5-50 μg peptide, 0.5-10 μg peptide, or 5 μg peptide). The peptide can be administered in 0.1 ml sterile saline (or 5% mannitol) once per day for at least 5 consecutive days, such as at least 10 days, at least 30 days, or at least 60 days. […] As a negative control, CRF-OE mice receive saline alone (such as 10-100 μl) or 5 μg astressin 2B in 0.1 ml saline.
(§4) In another example, therapeutic peptides are administered topically or transdermally. […]

young CRF-OE mice [3] = test: Astressin B fragments, prevention of hair loss in young CRF-OE mice (Example 9); type: in vivo; conditions: 5 μg sc or ip x 5 days, all time points
Experimental: CRF-OE mice similarly injected with 0.1 ml saline alone (or 5 μg astressin 2B in 0.1 ml saline) are used as negative controls. Astressin B fragments are as described in Example 8.

CRF-OE mice = test: Cyclic CRF antagonists, hair growth in adult alopecic CRF-OE mice (Example 10); type: in vivo; conditions: at least four weeks after the final administration
Description: as §1, with “Similarly” for “Similarly,”
as §2, §3, §4

Substance | General conditions of treated mice (young CRF-OE mice [1]) | Hair in the test area (young CRF-OE mice [2]) | Hair in the test area (young CRF-OE mice [3]) | Hair in the test area (CRF-OE mice)
(cyclo 30-33)[DPhe12, Nle21,38, Cml27,40, Glu30, Lys33]Ac-h/rCRF9-41 [Astressin B] | well and substantially the same | – | – | –
cyclo(31-34)[DPhe11, His12, CαMeLeu13,39, Nle17, Glu31, Lys34]Ac-Sau(8-40) [Astressin 2B, reference compound] | – | ultimately develop alopecia in the test area | develop ultimately alopecia in the test area | remain bald in the test area
